The values below are quoted from earlier work in US20240390366A1, “FORMULATION AND METHOD FOR TOPICAL TREATMENT OF MYCOBACTERIUM ULCERANS IN BURULI ULCERS” (priority 2021, published 2024).

In the case of `CC(C)/N=c1\cc2n(-c3ccc(Cl)cc3)c3ccccc3nc-2cc1Nc1ccc(Cl)cc1` [Clofazimine, clofazimine], the solubility in water entry is given as “practically insoluble”.
